# Experimental data: the METLIN SMRT retention time set (Domingo-Almenara et al. 2019)
# Test: gradient 5% acetonitrile 3 min, to 50% in 2 min, to 85% in 15 min, held 3 min, 100 µL/min
# Settings: column: Zorbax Extend-C18 2.1 x 50 mm; eluents: water / acetonitrile, 0.1% formic acid
# Outline: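 In both positive and negative ionization mode, a quadrupole time-of-flight mass spectrometer coupled to HPLC analyzed pure standards run in mixtures of ~100 molecules. The Zorbax Extend-C18 column (2.1 × 50 mm, 1.8 μm) was operated at 100 μL/min with water and acetonitrile, each containing 0.1% formic acid. The dead volume was 40 μL and the dwell volume 900 μL. Retention time came from adduct peaks that were computationally picked and individually inspected by hand.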
row,SMILES,RP-LC retention time [s]
1,CC1=C(c2ccc(C(C)C)cc2)S(=O)(=O)N=C1N1CCC(NC(=O)C2CCOC2)CC1 (stereo not given),788
2,CN(C)CCNC(=O)c1c(-c2ccccc2)c(-c2ccccc2)nn(C)c1=O,628
3,COCC1CN(S(=O)(=O)c2cc(F)ccc2C)CC12CCNCC2 (stereo not given),641
4,CCn1ccc2cc(S(=O)(=O)N3CCC(C(=O)NCc4cccnc4)CC3)ccc21,653
5,COc1ccc(OC)c(NC(=O)N2CCC(CN3CCC(C)CC3)CC2)c1,626
6,CC(C)CCNC(=O)C1CCCN(c2ncnc3c2oc2ccccc23)C1 (stereo not given),786
7,COc1cc(S(N)(=O)=O)c(OC)cc1N,616
8,COc1cc(NC(=O)CSc2ccc(N3CCCC(C(=O)NC4CC4)C3)nn2)cc(OC)c1 (stereo not given),642
9,CCc1nc2cc(-c3noc(-c4cc5ccccc5oc4=O)n3)ccc2o1,1010
10,CN(C)C(=O)c1ccc2c(c1)nc(CN(C)C(=O)Nc1ccc(F)cc1)n2C,598
11,Cc1ccc(Cn2cc(-c3ccncc3)cc2C(=O)NCCN(C)C)cc1,570
12,Cc1noc(C)c1-c1ccc(S(=O)(=O)N2CC=C(c3ccccc3)CC2)cc1,1110
13,CC(C)NC(=O)N1CCCN(Cc2cccs2)CC1,564
14,O=S(=O)(c1ccc(F)cc1F)N1CCN(Cc2cccc(F)c2)C2(CCOCC2)C1,844
15,CN1c2cc(C(=O)N3CCN(c4ccccc4)CC3)ccc2C(=O)N2CCCCC21 (stereo not given),823
16,Cc1ccc(-c2nnc(SCc3noc(CCC(=O)Nc4nccs4)n3)o2)cc1,816
17,Cc1ccc(Nc2nc(C)cc(N3CCN(S(=O)(=O)c4cc(F)ccc4F)CC3)n2)cc1,797
18,CCCCOc1ccc(C(=O)Nc2nc(-c3ccc(OC)c(C)c3)cs2)cc1,1240
19,O=C([C@@H]1C[C@H](Oc2ccccc2)CN1C(=O)CC1CCCC1)N1CCCC1,832
20,CCOC(=O)c1noc2ncnc(N(Cc3ccccc3OC)C3CCN(C)CC3)c12,667
21,CCCN1C(=O)COc2ccc(-c3noc(-c4cccc(F)c4)n3)cc21,1200
22,CCN1C(=O)COc2ccc(-c3noc(CNS(=O)(=O)c4ccc(Cl)cc4)n3)cc21,904
23,CCN1CCN(CCNC(=O)c2ccc(CS(=O)c3cccc(Cl)c3)o2)CC1 (stereo not given),576

row,SMILES,RP-LC retention time [s]
1,O=C(Nc1cnc(-c2cccc(Cl)c2)nc1)c1ccc(Br)o1,1140
2,c1coc(CN2CC(Oc3ccc(-c4noc(-c5ccncc5)n4)cc3)C2)c1,665
3,COc1cccc(Cc2nc(Cc3nc(-c4ccccc4)oc3C)no2)c1,1090
4,Cc1cc(=O)n2c(-c3cccc(NC(=O)Cc4cccs4)c3)csc2n1,696
5,Cn1c(=O)c(N2CCC(C(=O)NCCN3CCCCCC3)CC2)nc2cccnc21,611
6,Cc1ccc2[nH]c(C(N)=O)c(N3CCCC3=O)c2c1,646
7,Cc1csc(-c2cn(CC(=O)Nc3ccc(C)c(C)c3)cn2)n1,722
8,Cc1ccc2[nH]c(=O)c(CCC(=O)NCc3ccncc3)cc2c1,586
9,Cc1ccc(NC(=O)Cn2cnc3nc(N4CCC(C(=O)NC5CC5)CC4)sc3c2=O)cc1,674
10,CCc1nc(-c2cc(S(=O)(=O)NCC(=O)NC3CCCc4ccccc43)c(C)s2)no1 (stereo not given),998
11,Cc1c(N2CCC(C(=O)N3CCN(c4ccccn4)CC3)CC2)c(=O)n(C)c(=O)n1-c1ccccc1,618
12,CCN1CCCn2cc(S(=O)(=O)NCc3ccc(F)cc3Cl)cc2C1=O,771
13,CC(C)c1nc(-c2ccc(OC3CCN(C(=O)C4(c5ccccc5)CC4)C3)cc2)no1 (stereo not given),1120
14,CCOc1ccc(NC(=O)CSc2nccc(N3CCN(c4cccc(OC)c4)CC3)n2)cc1,765
15,CCCCN(C)S(=O)(=O)c1cc(-c2nnc(C)o2)co1,821
16,Cc1cccc(CN2CCc3nc(C)n(CC(=O)Nc4ccc5c(c4)OCO5)c(=O)c3C2)c1,575
17,c1ccc(N2CCN(Cc3csc4c3CCCC4)CC2)nc1,605
18,Cc1nc2nc(-c3ccc(C(C)(C)C)cc3)nn2c(C)c1CC(=O)N(CCO)Cc1ccccc1,982
19,CCOC(=O)c1nc(NCc2ccc(Cl)cc2)c2ccccc2n1,868
20,COCCn1ccc2nc(C)c(C(=O)Nc3cccc(SC)c3)cc2c1=O,746
21,Cc1ccccc1CN1CCCN(c2ncccc2-c2nc(C(C)C)no2)CC1,725
22,O=C(Nc1ccccc1)c1cnn2c1CCCC2,699
23,Cc1sc(NC(=O)c2ccc(Cl)cc2)nc1-c1ccc2c(c1)NC(=O)CO2,954

row,SMILES,RP-LC retention time [s]
1,Cc1sc(NC(=O)c2ccccc2Cl)nc1-c1ccc2c(c1)N(C)C(=O)CO2,968
2,CCN1C(=O)COc2ccc(-c3noc(C(C)NC(=O)c4ccccc4)n3)cc21 (stereo not given),856
3,O=C(Cc1cccs1)N1CCN(C(=O)c2cc3cc(Br)ccc3[nH]2)CC1,866
4,CCOc1ccc(Nc2ncccc2S(N)(=O)=O)cc1,773
5,Fc1cccc(-n2cc(-c3noc(-c4ccccc4)n3)nn2)c1,1070
6,Cc1noc(C)c1S(=O)(=O)N1CCC(Cc2nc(-c3cccnc3)n[nH]2)C1 (stereo not given),624
7,CCC(C)NC(=O)c1nccnc1NC(=O)c1ccc(C)cc1 (stereo not given),990
8,O=C(NCc1cccc(F)c1)C1CCCN(c2cnc3nccnc3c2)C1 (stereo not given),702
9,CC(C)c1cc(C(=O)NC2CCCCCC2)n[nH]1,836
10,COCc1noc(CC2CCOC3(CCN(C(=O)C4(c5ccccc5)CC4)CC3)C2)n1 (stereo not given),820
11,COc1ccc(OC)c(Nc2c(-c3cccc(O)c3)nc3cnccn23)c1,727
12,O=C(NCCCn1cccn1)C1CN(S(=O)(=O)c2ccccc2)CC12CCCCC2 (stereo not given),819
13,CCc1ccc(NC(=O)Cn2c(N)nc(C)c(C)c2=O)cc1,596
14,CCn1c(=O)c2ccccc2n(Cc2nc(-c3ccc(C)cc3)no2)c1=O,1070
15,O=C(NCCC1=CCCCC1)C1CCCCN1S(=O)(=O)c1ccc(Cl)cc1 (stereo not given),1200
16,Cc1ccc(CNS(=O)(=O)c2cc(-c3nc(C(C)(C)C)cs3)cs2)o1,1190
17,CCc1cc(=O)n(CC(=O)NCc2ccc(C)cc2)c(N)n1,610
18,Cc1cccnc1NC(=O)C1CCN(S(=O)(=O)c2cn(C(C)C)cn2)CC1,591
19,COC(=O)C1CCN([C@H]2CS(=O)(=O)C[C@@H]2S(=O)(=O)c2ccc(Cl)cc2)CC1,856
20,CC(C)(O)[C@@H]1[C@@H]2OC(=O)[C@H]1[C@]1(O)C[C@H]3O[C@]34C(=O)O[C@H]2[C@]14C,709
21,CC(=O)NC(Cc1c[nH]c2ccccc12)C(=O)O (stereo not given),605
22,Cc1nc(CNC(=O)[C@H]2CCCN2S(=O)(=O)c2cccc(C(F)(F)F)c2)cs1,787
23,Cc1ccccc1-c1nc(Cn2ccnc2C)no1,555

row,SMILES,RP-LC retention time [s]
1,O=C(Cn1nc2c3cc(F)ccc3ncn2c1=O)Nc1ccc(Cl)cc1,744
2,Clc1cccc(CN2CCCN(c3ncccc3-c3nc(C4CC4)no3)CC2)c1,723
3,CCn1c(=O)c(N2CCN(C(=O)Nc3cc(C)ccc3C)CC2)nc2ccccc21,984
4,CCn1cc(CCNC(=O)NCC(=O)OC)c2cccnc21,574
5,COc1ccc(Br)c2c1-c1nc(NC(=O)c3ccccc3F)sc1C2,1130
6,Cc1ccc(-n2cc3c(N4CCCC(C(=O)NCc5ccc(OC(C)C)cc5)C4)ncnc3n2)cc1 (stereo not given),765
7,Cc1ccc(C(=O)N2CCN(c3nnc4cccc(C)n34)CC2)s1,659
8,COC(=O)CNC(=O)N1CCN(c2nc3ccccc3n2Cc2ccccc2)CC1,644
9,CNS(=O)(=O)c1cccnc1Nc1cccc(C(C)C)c1,1080
10,Cc1ccc(C(N)=Nc2ccccc2)cc1,650
11,O=S(=O)(NCCc1c[nH]c2ncccc12)c1ccc(Br)cc1,684
12,COc1ccccc1N1CCN(c2cc(C(=O)O)c3cc(NS(C)(=O)=O)ccc3n2)CC1,619
13,CN(C1CCCCC1)S(=O)(=O)c1ccc(C(=O)Nc2nc3c(s2)Cc2ccccc2-3)cc1,1260
14,CCOc1ccc(C(=O)N2CCc3nc[nH]c3C2)cc1,565
15,COc1ccc(CNS(=O)(=O)c2ccc(-c3nnc(C4CCC4)o3)o2)cc1,873
16,CCNC(=O)Cn1c(=O)c2cnc(-c3ccccc3)nc2n(CC)c1=O,802
17,COc1ccc(-c2nc3ccccc3c3nnc(SCc4cn5ccccc5n4)n23)cc1,742
18,Cc1ccc2nc(NC(C)(C)CO)nc(-c3ccccc3)c2c1,644
19,Nc1nc(N2CCN(c3ccccn3)CC2)ncc1C(=O)Nc1ccccc1,585
20,CCc1noc(NC(C)=O)c1-c1ccc(C)c(S(=O)(=O)NC2CCCCCCC2)c1,959
21,Cc1noc([C@@H]2CN(C(=O)c3cc(C)oc3C)C[C@H]2CO)n1,640
